This experiment deals with houseflies. Kind of experiment: Knockdown test on houseflies, oil solution sprayed in a 70 cm cubic chamber. In kind it is in vivo. As to conditions: 0.00625% (w/v) oil solution, 0.7 ml sprayed in cubic chamber of 70 cm side length, ten houseflies (5 of each male and female), repeated twice. On the procedure: Each of the present invention compounds (1) and (2) (0.00625 parts) produced in the aforementioned Production
Examples was dissolved in 10 parts of dichloromethane and the resulting solution was mixed with 89.99375 parts of an isoparafin solvent (Isper M, registered trademark of Exxon Chemical Company) to prepare a 0.00625% (w/v) oil solution.
Ten houseflies (5 of each male and female) were released in a cubic chamber having a side length of 70 cm and then 0.7 ml of the present invention compound (1) was sprayed through a small window at an inlet of the chamber using a spray gun (spray pressure: 0.9 kg/cm^2). The number of knockdowned houseflies was counted after a given time had passed since completion of spraying, and a knockdown rate (KD rate) was determined (repeated twice). The test was carried out in the same manner, except that the present invention compound (2) was used in place of the present invention compound (1), and then a knockdown rate was determined after a given time (repeated twice).

Each structure is given as a SMILES string.

With `C/C=C/C(C#N)=C/[C@@H]1[C@@H](C(=O)OCc2c(F)c(F)c(COC)c(F)c2F)C1(C)C` [Present invention compound (2), 4-methoxymethyl-2,3,5,6-tetrafluorobenzyl=(1R)-trans-3-[(1Z,3E)-2-cyano-1,3-pentadienyl]-2,2-dimethylcyclopropane carboxylate], the “Knockdown rate (%) after 7 minutes” value came out at 100%.

On to `C=C/C(C#N)=C/[C@@H]1[C@@H](C(=O)OCc2c(F)c(F)c(COC)c(F)c2F)C1(C)C` [Present invention Compound (1), 4-methoxymethyl-2,3,5,6-tetrafluorobenzyl=(1R)-trans-3-[(1Z)-2-cyano-1,3-butadienyl]-2,2-dimethylcyclopropane carboxylate], for which the “Knockdown rate (%) after 7 minutes” value turned out to be 100%.

The record behind these values is patent publication US8575213B2, “Pyrethrinoid-type esters as pesticides” (Sumitomo Chemical Company, Limited, priority 2010, dated 2013).
